How the values were obtained:
CCR4 [1] = target: T1, CCR4 (Homo sapiens, UniProt P51679); assay: CEM cell chemotaxis (migration) assay to CCL22 (MDC) in 100% Fetal Bovine Serum (FBS); type: cell-based; settings: CEM cells in 100% FBS with 1% HEPEs; recombinant human CCL22 0.1 nM; 37° C. 60 minutes
T1 construct: CEM Cells Endogenous Express CCR4; endogenous in cells; host or cells: CEM cells
T1 sequence (P51679 1-360): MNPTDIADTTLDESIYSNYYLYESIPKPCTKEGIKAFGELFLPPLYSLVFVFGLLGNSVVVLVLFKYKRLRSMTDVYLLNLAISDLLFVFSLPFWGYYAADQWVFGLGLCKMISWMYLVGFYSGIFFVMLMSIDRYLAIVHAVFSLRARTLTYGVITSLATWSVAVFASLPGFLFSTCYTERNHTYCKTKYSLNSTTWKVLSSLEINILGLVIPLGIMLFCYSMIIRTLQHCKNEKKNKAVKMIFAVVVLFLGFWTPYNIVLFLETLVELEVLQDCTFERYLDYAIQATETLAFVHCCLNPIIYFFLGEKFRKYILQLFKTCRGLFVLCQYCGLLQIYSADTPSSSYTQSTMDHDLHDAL
How it was run: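 Endogenously CCR4-expressing CEM cells in 100% FBS with 1% HEPES were preincubated with serially diluted compound (top final 10 μM) and allowed to migrate through 5 μm polycarbonate membranes toward 0.1 nM human CCL22 (EC50) for 60 min at 37 °C. Migrated cells were quantified by CyQUANT fluorescence.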

CCR4 [2] = target: T1, CCR4; assay: CEM cell chemotaxis (migration) assay to CCL22 (MDC) in HBSS buffer with 0.1% BSA; type: cell-based; settings: CEM cells in HBSS with 0.1% BSA; recombinant human CCL22 0.1 nM; 37° C. 60 minutes
Description: CEM Cells Endogenous Express CCR4
A chemotaxis assay can be used to determine the efficacy of potential receptor antagonists at blocking the migration mediated through chemokine receptors, such as CCR4. This assay is routinely performed using the ChemoTX® microchamber system with a 5 μm pore-sized polycarbonate membrane.
HBSS: CEM Cells are collected by centrifugation at 400×g at room temperature, then suspended at 5 million/ml in Hanks' Balanced Salt Solution (HBSS) buffer with 0.1% BSA. The compound being tested is serially diluted from a maximum final concentration of 10 μM (or an equivalent volume of its solvent (DMSO)) and is then added to the cell/buffer mixture. Separately, recombinant human CCL22 (MDC) at its EC50 concentration (0.1 nM) is placed in the lower wells of the ChemoTX® plate. The 5-μm (pore size) polycarbonate membrane was placed onto the plate, and 20 μL of the cell/compound mixture is transferred onto each well of the membrane. The plates are incubated at 37° C. for 60 minutes, after which the polycarbonate membranes are removed and 5 μl of the DNA-intercalating dye CyQUANT (Invitrogen, Carlsbad, CA) is added to the lower wells. The amount of fluorescence, corresponding to the number of migrated cells, is measured using a Spectrafluor Plus plate reader (TECAN, San Jose, CA).

Compound | IC50 (CCR4 [1]) | IC50 (CCR4 [2])
CNC1CCN(C(=O)C2CCN(c3ncc(Cl)c(N[C@H](C)c4ccc(Cl)cc4Cl)n3)CC2)C1 (stereo partly shown) [Example 1.068] | < 100 nM | < 100 nM
C[C@@H](Nc1nc(N2CCN(C(=O)[C@@H]3CCCN3)CC2)ncc1Cl)c1ccc(Cl)cc1Cl [Example 1.052] | < 100 nM | < 100 nM
C[C@@H](Nc1nc(N2CCN(C3CCCN(CCC(=O)O)C3)CC2)ncc1Cl)c1ccc(Cl)cc1Cl (stereo partly shown) [Example 1.054] | < 100 nM | < 100 nM
C[C@@H](Nc1nc(C2=CCN([C@H]3CCCN(CCC(=O)O)C3)CC2)ncc1Cl)c1ccc(Cl)cc1Cl [Example 1.057] | < 100 nM | < 100 nM
C[C@H](Nc1nc(N2CCN(C(=O)[C@H]3CCC(=O)N3)CC2)ncc1Cl)c1cc(F)c(Cl)cc1Cl [Example 1.110] | > 1000 nM | > 1000 nM
C[C@@H](Nc1nc(N2CC[C@H](NC(=O)[C@@H]3CCC(=O)N3)[C@@H](O)C2)ncc1Cl)c1ccc(Cl)cc1Cl [Example 1.254] | < 100 nM | > 1000 nM
C[C@@H]1CN(C(=O)[C@H]2CCCN2)CCN1c1ncc(Cl)c(N[C@H](C)c2ccc(Cl)cc2Cl)n1 [Example 1.038] | < 100 nM | < 100 nM
C[C@@H](Nc1nc(N2CCN(C(=O)C3(C)CNC3)CC2)ncc1Cl)c1ccc(Cl)cc1Cl [Example 1.037] | 100 to 1000 nM | 100 to 1000 nM
C[C@@H](Nc1nc(N2CCN(C(=O)[C@H]3CCC(=O)N3)CC2)ncc1Cl)c1cc(Cl)cc(Cl)c1 [Example 1.083] | > 1000 nM | > 1000 nM
Cc1nc(N2CCN(C(=O)[C@H]3CCC(=O)N3)CC2)nc(N[C@H](C)c2cc(F)c(Cl)cc2Cl)c1Cl [Example 1.258] | < 100 nM | < 100 nM
C[C@@H](Nc1nc(N2CCN(C(=O)[C@H]3CCS(=O)(=O)N3)CC2)ncc1Cl)c1ccc(Cl)cc1Cl [Example 1.079] | < 100 nM | < 100 nM
C[C@@H](Nc1nc(C2=CCN([C@H]3CCCN(CCC(N)=O)C3)CC2)ncc1Cl)c1ccc(Cl)cc1Cl [Example 1.056] | < 100 nM | < 100 nM
C[C@@H](Nc1nc(N2CCC(C3CCCN(CCC(=O)O)C3)CC2)ncc1Cl)c1ccc(Cl)cc1Cl (stereo partly shown) [Example 1.035] | < 100 nM | < 100 nM
C[C@@H](Nc1nc(N2CCN(C(=O)[C@H]3CCCN3C(=O)OC(C)(C)C)CC2)ncc1Cl)c1ccc(Cl)cc1Cl [Example 1.051] | 100 to 1000 nM | 100 to 1000 nM
C[C@@H](Nc1nc(N2CC[C@H](NC(=O)[C@H]3CCCN3)[C@H](O)C2)ncc1Cl)c1ccc(Cl)cc1Cl [Example 1.014] | < 100 nM | < 100 nM
C[C@@H](Nc1nc(N2CCC(CO)(NC(=O)[C@H]3CCCN3)CC2)ncc1Cl)c1ccc(Cl)cc1Cl [Example 1.003] | < 100 nM | < 100 nM
C[C@@H](Nc1nc(N2CCC(NC(=O)[C@@H]3CCN(C)C3)CC2)ncc1Cl)c1ccc(Cl)cc1Cl [Example 1.067] | 100 to 1000 nM | < 100 nM
C[C@@H](Nc1nc(C2CCN(C3CCCN(CCC(=O)O)C3)CC2)ncc1Cl)c1ccc(Cl)cc1Cl (stereo partly shown) [Example 1.077] | < 100 nM | < 100 nM
C[C@@H](Nc1nc(N2CCN(C(=O)[C@H]3CCNC3)CC2)ncc1Cl)c1ccc(Cl)cc1Cl [Example 1.150] | < 100 nM | < 100 nM
C[C@@H](Nc1nc(N2CCC(C3CNC3)CC2)ncc1Cl)c1ccc(Cl)cc1Cl [Example 1.021] | < 100 nM | < 100 nM
C[C@@H](Nc1nc(N2CCC(C(=O)N(C)CCN(C)C)CC2)ncc1Cl)c1ccc(Cl)cc1Cl [Example 1.025] | < 100 nM | < 100 nM
C[C@@H](Nc1nc(N2CCN(C(=O)N(C)C3CCNC3)CC2)ncc1Cl)c1ccc(Cl)cc1Cl (stereo partly shown) [Example 1.059] | < 100 nM | < 100 nM
C[C@@H](Nc1nc(N2CCN(C(=O)[C@H]3CCCN3)CC2)ncc1Cl)c1ccc(Cl)cc1F [Example 1.004] | < 100 nM | < 100 nM
